# According to patent US20220348565A1, “PHARMACEUTICAL COMPOUNDS” (SENTINEL ONCOLOGY LIMITED, priority 2019, published 2022):
# Key:
# Test in all cases: DiscoverX KinomeScreen kinase selectivity competition binding assay
# [1] = target: T1, panel of ninety-seven kinases (Homo sapiens, UniProt Q9UPE1); details: SRPK3; read-out: % Ctrl @ 3 μM
# T1 construct: purchased DiscoverX; host or cells: T7 phage in E. coli (BL21-derived) for most kinases; HEK-293 for the rest
# Protocol: (§1) Atropisomer A-2 has been tested for off-target activity against a panel of ninety-seven kinases distributed across the kinome at a concentration of 3 μM using the DiscoverX KinomeScreen assay. The DiscoverX KinomeScreen assay is a site-directed competition binding assay which measures the binding affinity of a compound to a kinase, by use of a solid supported control compound which can bind or capture the kinases in solution. In the absence of a kinase-inhibitor test compound, all of the kinase will bind to the solid support. If a kinase-inhibitor test compound is added to the assay mix, the amount of kinase binding to the solid support will be reduced, the extent of reduction being dependent on the potency of the test compound as a kinase inhibitor. […] For most assays, kinase-tagged T7 phage strains were grown in parallel in 24-well blocks in an E. coli host derived from the BL21 strain. E. coli were grown to log-phase and infected with T7 phage from a frozen stock (multiplicity of infection=0.4) and incubated with shaking at 32° C. until lysis (90-150 minutes). The lysates were centrifuged (6,000×g) and filtered (0.2 μm) to remove cell debris. The remaining kinases were produced in HEK-293 cells and subsequently tagged with DNA for qPCR detection. Streptavidin-coated magnetic beads were treated with biotinylated small molecule ligands for 30 minutes at room temperature to generate affinity resins for kinase assays. The liganded beads were blocked with excess biotin and washed with blocking buffer (SeaBlock (Pierce), 1% BSA, 0.05% Tween 20, 1 mM DTT) to remove unbound ligand and to reduce non-specific phage binding. […] Test compounds were prepared as 40× stocks in 100% DMSO and directly diluted into the assay. All reactions were performed in polypropylene 384-well plates in a final volume of 0.02 ml. […] The beads were then re-suspended in elution buffer (1×PBS, 0.05% Tween 20, 0.5 μM non-biotinylated affinity ligand) and incubated at room temperature with shaking for 30 minutes. The kinase concentration in the eluates was measured by qPCR. Compounds that bind the kinase active site and directly (sterically) or indirectly (allosterically) prevent kinase binding to the immobilized ligand, will reduce the amount of kinase captured on the solid support. […] The strength of binding of the test molecule to the kinase can be expressed as the percent control (% Ctrl) The compound(s) were screened at 3000 nM concentration, and results for primary screen binding interactions are reported as ‘% Ctrl’, where lower numbers indicate stronger hits in the matrix on the following page(s). [formula] • negative control=DMSO (100% Ctrl) • positive control=control compound (0% Ctrl)
# [2] = target: T2, panel of ninety-seven kinases (Homo sapiens, UniProt P36507); details: MAP2K2; read-out: % Ctrl @ 3 μM
# T2 construct: purchased DiscoverX; host or cells: T7 phage in E. coli (BL21-derived) for most kinases; HEK-293 for the rest
# Protocol: as §1
# [3] = target: T3, panel of ninety-seven kinases (Homo sapiens, UniProt P50750); details: CDK9; read-out: % Ctrl @ 3 μM
# T3 construct: purchased DiscoverX; host or cells: T7 phage in E. coli (BL21-derived) for most kinases; HEK-293 for the rest
# T3 sequence (P50750 whole entry): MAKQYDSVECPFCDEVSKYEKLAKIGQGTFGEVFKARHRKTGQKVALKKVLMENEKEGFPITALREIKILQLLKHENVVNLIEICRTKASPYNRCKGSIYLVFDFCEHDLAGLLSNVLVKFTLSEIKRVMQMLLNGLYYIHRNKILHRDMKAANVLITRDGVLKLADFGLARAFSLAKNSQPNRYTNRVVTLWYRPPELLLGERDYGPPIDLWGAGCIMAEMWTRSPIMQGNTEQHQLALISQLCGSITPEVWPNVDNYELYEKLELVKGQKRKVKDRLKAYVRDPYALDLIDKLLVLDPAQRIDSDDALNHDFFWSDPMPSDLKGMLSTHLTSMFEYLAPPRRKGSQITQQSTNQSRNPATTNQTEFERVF
# Protocol: as §1
# [4] = target: T4, panel of ninety-seven kinases (Homo sapiens, UniProt P45984); details: MAPK9; read-out: % Ctrl @ 3 μM
# T4 construct: purchased DiscoverX; host or cells: T7 phage in E. coli (BL21-derived) for most kinases; HEK-293 for the rest
# T4 sequence (P45984 whole entry): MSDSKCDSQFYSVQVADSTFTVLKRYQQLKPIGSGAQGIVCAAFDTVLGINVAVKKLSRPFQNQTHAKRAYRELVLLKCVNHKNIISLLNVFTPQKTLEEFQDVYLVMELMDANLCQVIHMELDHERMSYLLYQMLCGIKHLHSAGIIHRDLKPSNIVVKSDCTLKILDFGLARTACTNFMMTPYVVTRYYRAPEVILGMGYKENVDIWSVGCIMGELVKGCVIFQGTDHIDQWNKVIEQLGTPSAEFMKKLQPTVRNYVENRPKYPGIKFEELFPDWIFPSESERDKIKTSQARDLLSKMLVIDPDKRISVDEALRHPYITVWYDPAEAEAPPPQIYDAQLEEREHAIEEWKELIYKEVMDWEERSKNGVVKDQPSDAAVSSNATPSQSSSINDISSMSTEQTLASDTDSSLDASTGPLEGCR
# Protocol: as §1
# [5] = target: T5, panel of ninety-seven kinases (Homo sapiens, UniProt Q15303); details: ERBB4; read-out: % Ctrl @ 3 μM
# T5 construct: purchased DiscoverX; host or cells: T7 phage in E. coli (BL21-derived) for most kinases; HEK-293 for the rest
# Protocol: as §1
# [6] = target: T6, panel of ninety-seven kinases (Homo sapiens, UniProt O14920); details: IKBKB; read-out: % Ctrl @ 3 μM
# T6 construct: purchased DiscoverX; host or cells: T7 phage in E. coli (BL21-derived) for most kinases; HEK-293 for the rest
# Protocol: as §1
# [7] = target: T7, panel of ninety-seven kinases (Homo sapiens, UniProt P31751); details: AKT2; read-out: % Ctrl @ 3 μM
# T7 construct: purchased DiscoverX; host or cells: T7 phage in E. coli (BL21-derived) for most kinases; HEK-293 for the rest
# Protocol: as §1
# [8] = target: T8, panel of ninety-seven kinases (Homo sapiens, UniProt P42336); details: PIK3CA; read-out: % Ctrl @ 3 μM
# T8 construct: purchased DiscoverX; host or cells: T7 phage in E. coli (BL21-derived) for most kinases; HEK-293 for the rest
# T8 sequence (P42336 whole entry): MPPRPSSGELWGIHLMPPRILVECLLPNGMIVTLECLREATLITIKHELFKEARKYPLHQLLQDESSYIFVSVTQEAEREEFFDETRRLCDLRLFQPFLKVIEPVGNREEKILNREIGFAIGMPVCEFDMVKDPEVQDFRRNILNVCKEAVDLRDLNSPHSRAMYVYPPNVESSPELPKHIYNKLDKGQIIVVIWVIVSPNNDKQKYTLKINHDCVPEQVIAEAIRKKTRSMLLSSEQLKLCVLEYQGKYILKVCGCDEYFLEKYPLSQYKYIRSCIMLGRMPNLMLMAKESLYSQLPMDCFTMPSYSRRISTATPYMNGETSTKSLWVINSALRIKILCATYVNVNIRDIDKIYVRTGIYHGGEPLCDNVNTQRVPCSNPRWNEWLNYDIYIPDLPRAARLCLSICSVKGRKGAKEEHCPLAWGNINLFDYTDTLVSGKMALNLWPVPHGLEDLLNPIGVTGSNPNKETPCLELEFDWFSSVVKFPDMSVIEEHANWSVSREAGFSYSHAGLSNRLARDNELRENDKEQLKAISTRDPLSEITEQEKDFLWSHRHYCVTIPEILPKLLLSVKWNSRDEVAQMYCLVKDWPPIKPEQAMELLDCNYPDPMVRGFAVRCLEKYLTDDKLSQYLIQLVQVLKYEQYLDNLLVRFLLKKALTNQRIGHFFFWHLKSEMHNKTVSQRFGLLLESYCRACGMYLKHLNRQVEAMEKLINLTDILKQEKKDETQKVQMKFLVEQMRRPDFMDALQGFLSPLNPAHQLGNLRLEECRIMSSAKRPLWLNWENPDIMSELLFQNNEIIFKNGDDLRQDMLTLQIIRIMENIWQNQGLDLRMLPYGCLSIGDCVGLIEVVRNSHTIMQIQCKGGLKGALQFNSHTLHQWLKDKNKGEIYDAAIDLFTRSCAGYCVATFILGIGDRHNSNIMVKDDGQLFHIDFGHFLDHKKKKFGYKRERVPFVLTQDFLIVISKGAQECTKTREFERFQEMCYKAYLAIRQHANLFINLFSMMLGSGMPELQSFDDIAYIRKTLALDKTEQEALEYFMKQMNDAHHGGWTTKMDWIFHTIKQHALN
# Protocol: as §1
# [9] = target: T9, panel of ninety-seven kinases (Homo sapiens, UniProt Q9HBH9); details: MKNK2; read-out: % Ctrl @ 3 μM
# T9 construct: purchased DiscoverX; host or cells: T7 phage in E. coli (BL21-derived) for most kinases; HEK-293 for the rest
# T9 sequence (Q9HBH9 whole entry): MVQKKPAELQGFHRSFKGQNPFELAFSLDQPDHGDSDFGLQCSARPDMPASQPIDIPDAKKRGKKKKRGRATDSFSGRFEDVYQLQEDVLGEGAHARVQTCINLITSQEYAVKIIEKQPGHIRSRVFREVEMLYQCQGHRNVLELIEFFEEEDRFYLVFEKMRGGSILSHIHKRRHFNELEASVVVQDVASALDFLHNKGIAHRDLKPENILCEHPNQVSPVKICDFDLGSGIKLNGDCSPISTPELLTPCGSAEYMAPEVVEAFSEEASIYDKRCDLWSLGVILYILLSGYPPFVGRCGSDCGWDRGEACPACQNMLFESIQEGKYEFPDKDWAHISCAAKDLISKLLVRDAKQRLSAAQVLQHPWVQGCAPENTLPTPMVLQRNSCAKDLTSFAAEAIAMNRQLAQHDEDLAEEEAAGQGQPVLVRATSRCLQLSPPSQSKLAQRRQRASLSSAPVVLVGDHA
# Protocol: as §1
# [10] = target: T10, panel of ninety-seven kinases (Homo sapiens, UniProt Q8NI60); details: CABC1; read-out: % Ctrl @ 3 μM
# T10 construct: purchased DiscoverX; host or cells: T7 phage in E. coli (BL21-derived) for most kinases; HEK-293 for the rest
# Protocol: as §1
# [11] = target: T11, panel of ninety-seven kinases (Homo sapiens, UniProt Q9UM73); details: ALK; read-out: % Ctrl @ 3 μM
# T11 construct: purchased DiscoverX; host or cells: T7 phage in E. coli (BL21-derived) for most kinases; HEK-293 for the rest
# Protocol: as §1
# [12] = target: T12, panel of ninety-seven kinases (Homo sapiens, UniProt P27448); details: MARK3; read-out: % Ctrl @ 3 μM
# T12 construct: purchased DiscoverX; host or cells: T7 phage in E. coli (BL21-derived) for most kinases; HEK-293 for the rest
# Protocol: as §1
# [13] = target: T13, panel of ninety-seven kinases (Homo sapiens, UniProt P51812); details: RPS6KA3; read-out: % Ctrl @ 3 μM
# T13 construct: purchased DiscoverX; host or cells: T7 phage in E. coli (BL21-derived) for most kinases; HEK-293 for the rest
# Protocol: as §1
# [14] = target: T14, panel of ninety-seven kinases (Homo sapiens, UniProt Q00526); details: CDK3; read-out: % Ctrl @ 3 μM
# T14 construct: purchased DiscoverX; host or cells: T7 phage in E. coli (BL21-derived) for most kinases; HEK-293 for the rest
# T14 sequence (Q00526 whole entry): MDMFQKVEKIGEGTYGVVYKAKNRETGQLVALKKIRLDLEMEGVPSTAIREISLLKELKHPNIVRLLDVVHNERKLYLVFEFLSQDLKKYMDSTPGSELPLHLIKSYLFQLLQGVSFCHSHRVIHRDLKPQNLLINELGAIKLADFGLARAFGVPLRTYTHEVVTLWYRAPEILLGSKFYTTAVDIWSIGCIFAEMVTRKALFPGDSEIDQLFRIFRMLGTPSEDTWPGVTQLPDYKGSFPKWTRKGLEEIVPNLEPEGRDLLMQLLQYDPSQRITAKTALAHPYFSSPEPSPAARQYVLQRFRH
# Protocol: as §1
# [15] = target: T15, panel of ninety-seven kinases (Homo sapiens, UniProt Q86UX6); details: STK32C; read-out: % Ctrl @ 3 μM
# T15 construct: purchased DiscoverX; host or cells: T7 phage in E. coli (BL21-derived) for most kinases; HEK-293 for the rest
# Protocol: as §1
# [16] = target: T16, panel of ninety-seven kinases (Homo sapiens, UniProt O96013); details: PAK4; read-out: % Ctrl @ 3 μM
# T16 construct: purchased DiscoverX; host or cells: T7 phage in E. coli (BL21-derived) for most kinases; HEK-293 for the rest
# Protocol: as §1
# [17] = target: T17, panel of ninety-seven kinases (Homo sapiens, UniProt Q9BVS4); details: RIOK2; read-out: % Ctrl @ 3 μM
# T17 construct: purchased DiscoverX; host or cells: T7 phage in E. coli (BL21-derived) for most kinases; HEK-293 for the rest
# Protocol: as §1
# [18] = target: T18, panel of ninety-seven kinases (Homo sapiens, UniProt P49841); details: GSK3B; read-out: % Ctrl @ 3 μM
# T18 construct: purchased DiscoverX; host or cells: T7 phage in E. coli (BL21-derived) for most kinases; HEK-293 for the rest
# T18 sequence (P49841 whole entry): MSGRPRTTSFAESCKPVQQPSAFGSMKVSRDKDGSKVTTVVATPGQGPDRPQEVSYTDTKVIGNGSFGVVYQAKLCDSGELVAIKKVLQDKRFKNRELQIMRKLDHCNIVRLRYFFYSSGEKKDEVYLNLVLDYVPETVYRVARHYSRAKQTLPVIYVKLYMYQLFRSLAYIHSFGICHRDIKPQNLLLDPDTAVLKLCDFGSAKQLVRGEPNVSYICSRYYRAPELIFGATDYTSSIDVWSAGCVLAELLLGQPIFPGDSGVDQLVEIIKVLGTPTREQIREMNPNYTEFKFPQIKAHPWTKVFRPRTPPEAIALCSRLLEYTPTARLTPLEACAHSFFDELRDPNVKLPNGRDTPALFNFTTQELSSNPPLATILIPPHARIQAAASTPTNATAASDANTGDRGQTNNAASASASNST
# Protocol: as §1
# [19] = target: T19, panel of ninety-seven kinases (Homo sapiens, UniProt P36888); details: FLT3; read-out: % Ctrl @ 3 μM
# T19 construct: purchased DiscoverX; host or cells: T7 phage in E. coli (BL21-derived) for most kinases; HEK-293 for the rest
# T19 sequence (P36888 27-993): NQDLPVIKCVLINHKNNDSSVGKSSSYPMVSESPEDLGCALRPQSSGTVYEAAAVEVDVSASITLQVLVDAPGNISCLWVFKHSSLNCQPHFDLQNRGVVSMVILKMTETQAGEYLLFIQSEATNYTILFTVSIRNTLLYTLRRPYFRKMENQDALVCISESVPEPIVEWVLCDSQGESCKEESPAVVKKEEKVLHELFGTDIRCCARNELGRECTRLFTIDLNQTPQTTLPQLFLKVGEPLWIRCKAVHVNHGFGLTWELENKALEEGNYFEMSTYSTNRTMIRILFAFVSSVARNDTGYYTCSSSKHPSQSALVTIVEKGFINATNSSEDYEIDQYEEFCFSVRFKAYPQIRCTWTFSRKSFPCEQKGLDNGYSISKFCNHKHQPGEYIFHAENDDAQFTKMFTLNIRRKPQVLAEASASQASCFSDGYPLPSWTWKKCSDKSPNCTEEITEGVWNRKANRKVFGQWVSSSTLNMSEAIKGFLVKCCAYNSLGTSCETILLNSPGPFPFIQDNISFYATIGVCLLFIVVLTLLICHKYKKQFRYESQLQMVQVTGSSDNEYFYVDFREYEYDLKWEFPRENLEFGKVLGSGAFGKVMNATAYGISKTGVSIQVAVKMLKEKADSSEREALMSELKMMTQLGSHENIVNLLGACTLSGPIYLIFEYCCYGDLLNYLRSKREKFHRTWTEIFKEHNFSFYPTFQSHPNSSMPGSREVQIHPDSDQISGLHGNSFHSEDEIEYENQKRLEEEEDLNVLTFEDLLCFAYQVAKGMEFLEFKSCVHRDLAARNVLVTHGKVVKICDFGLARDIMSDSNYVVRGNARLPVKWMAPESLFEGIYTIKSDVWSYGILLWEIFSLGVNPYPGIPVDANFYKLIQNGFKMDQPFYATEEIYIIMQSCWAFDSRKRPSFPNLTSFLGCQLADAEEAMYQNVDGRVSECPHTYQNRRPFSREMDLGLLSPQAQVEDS
# Protocol: as §1
# [20] = target: T20, panel of ninety-seven kinases (Homo sapiens, UniProt O14757); details: CHEK1; read-out: % Ctrl @ 3 μM
# T20 construct: purchased DiscoverX; host or cells: T7 phage in E. coli (BL21-derived) for most kinases; HEK-293 for the rest
# Protocol: as §1
# [21] = target: T21, panel of ninety-seven kinases (Homo sapiens, UniProt P50613); details: CDK7; read-out: % Ctrl @ 3 μM
# T21 construct: purchased DiscoverX; host or cells: T7 phage in E. coli (BL21-derived) for most kinases; HEK-293 for the rest
# T21 sequence (P50613 whole entry): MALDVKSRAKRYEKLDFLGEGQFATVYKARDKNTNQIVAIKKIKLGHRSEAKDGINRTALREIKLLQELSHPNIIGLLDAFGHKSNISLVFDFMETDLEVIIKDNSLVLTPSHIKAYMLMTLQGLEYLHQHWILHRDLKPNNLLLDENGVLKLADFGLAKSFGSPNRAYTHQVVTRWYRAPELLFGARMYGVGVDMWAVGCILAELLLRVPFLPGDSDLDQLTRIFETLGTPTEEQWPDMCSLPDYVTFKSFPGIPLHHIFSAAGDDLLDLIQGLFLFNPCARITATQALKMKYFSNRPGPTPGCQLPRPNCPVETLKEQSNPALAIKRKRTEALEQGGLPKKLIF
# Protocol: as §1
# T1 sequence (Q9UPE1 whole entry): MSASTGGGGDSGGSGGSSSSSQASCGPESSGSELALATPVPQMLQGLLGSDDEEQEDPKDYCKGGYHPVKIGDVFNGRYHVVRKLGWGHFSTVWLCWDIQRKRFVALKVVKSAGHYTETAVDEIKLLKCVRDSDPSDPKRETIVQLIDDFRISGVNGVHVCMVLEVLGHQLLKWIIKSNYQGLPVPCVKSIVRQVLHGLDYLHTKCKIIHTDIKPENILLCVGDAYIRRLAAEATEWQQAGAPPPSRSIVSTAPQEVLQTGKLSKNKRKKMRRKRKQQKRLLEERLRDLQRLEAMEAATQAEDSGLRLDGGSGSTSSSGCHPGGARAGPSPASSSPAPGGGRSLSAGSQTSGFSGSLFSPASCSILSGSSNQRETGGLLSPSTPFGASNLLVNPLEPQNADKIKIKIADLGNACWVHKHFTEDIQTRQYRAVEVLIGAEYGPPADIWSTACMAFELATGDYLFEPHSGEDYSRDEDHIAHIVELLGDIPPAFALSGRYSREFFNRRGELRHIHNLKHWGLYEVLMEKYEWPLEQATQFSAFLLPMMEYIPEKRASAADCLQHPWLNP
structure (smiles),measurement,setting,value
"CN(C)CCNC(=O)c1ccc(-c2ccc(-c3ccc(Cl)cc3)n2-c2ccccc2C(F)(F)F)cc1 (single isomer, unassigned) [Atropisomer A-2, 4-[5-(4-chlorophenyl)-1-[2-(trifluoromethyl)phenyl]pyrrol-2-yl]-N-[2-(dimethylamino)ethyl]benzamide]",percent of control kinase binding to immobilized ligand at 3 µM,[1],71%
same,percent of control kinase binding to immobilized ligand at 3 µM,[2],81%
same,percent of control kinase binding to immobilized ligand at 3 µM,[3],97%
same,percent of control kinase binding to immobilized ligand at 3 µM,[4],80%
same,percent of control kinase binding to immobilized ligand at 3 µM,[5],99%
same,percent of control kinase binding to immobilized ligand at 3 µM,[6],96%
same,percent of control kinase binding to immobilized ligand at 3 µM,[7],100%
same,percent of control kinase binding to immobilized ligand at 3 µM,[8],100%
same,percent of control kinase binding to immobilized ligand at 3 µM,[9],85%
same,percent of control kinase binding to immobilized ligand at 3 µM,[10],63%
same,percent of control kinase binding to immobilized ligand at 3 µM,[11],89%
same,percent of control kinase binding to immobilized ligand at 3 µM,[12],100%
same,percent of control kinase binding to immobilized ligand at 3 µM,[13],100%
same,percent of control kinase binding to immobilized ligand at 3 µM,[14],100%
same,percent of control kinase binding to immobilized ligand at 3 µM,[15],100%
same,percent of control kinase binding to immobilized ligand at 3 µM,[16],100%
same,percent of control kinase binding to immobilized ligand at 3 µM,[17],100%
same,percent of control kinase binding to immobilized ligand at 3 µM,[18],88%
same,percent of control kinase binding to immobilized ligand at 3 µM,[19],100%
same,percent of control kinase binding to immobilized ligand at 3 µM,[20],100%
same,percent of control kinase binding to immobilized ligand at 3 µM,[21],100%
